Measured values as given in patent US20120178758A1, “STYRYL-TRIAZINE DERIVATIVES AND THEIR THERAPEUTICAL APPLICATIONS” (CALIFORNIA CAPITAL EQUITY, LLC, priority 2009, published 2012).

Tests used:
Type in all cases: biochemical
Aurora-A(h) = molecular target: T1, Aurora-A(h) (Homo sapiens, UniProt O14965); assay: Aurora-A kinase assay (KinaseProfiler / Kinase Hotspot); conditions: compound at 1 μM; read-out: % Inhibition @1 μM Auroro-A
T1 construct: purchased Millipore (KinaseProfiler Service) / Reaction Biology Corp. (Kinase Hotspot)
T1 sequence (O14965 1-403): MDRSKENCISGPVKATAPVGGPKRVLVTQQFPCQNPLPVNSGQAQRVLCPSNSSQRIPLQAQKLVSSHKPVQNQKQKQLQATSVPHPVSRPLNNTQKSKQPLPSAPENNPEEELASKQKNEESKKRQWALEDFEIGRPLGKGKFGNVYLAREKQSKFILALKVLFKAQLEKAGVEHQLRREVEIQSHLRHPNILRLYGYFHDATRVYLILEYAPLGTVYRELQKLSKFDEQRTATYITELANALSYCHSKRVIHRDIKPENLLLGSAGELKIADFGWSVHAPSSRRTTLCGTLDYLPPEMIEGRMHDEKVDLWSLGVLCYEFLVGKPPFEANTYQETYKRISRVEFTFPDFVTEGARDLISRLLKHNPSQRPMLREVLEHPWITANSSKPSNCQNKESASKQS
Experimental: (§1) This example illustrated c-Src kinase, Aurora-A kinase, Flt3 kinase, Ret kinase and TrkA Kinase Assays of selected Compounds from this invention (referred to Daniele Fancelli et al, J. Med. Chem., 2006, 49 (24), pp 7247-7251). The KinaseProfiler™ Service Assay Protocols (Millipore) were used to test the kinase inhibiting activity of novel compounds from this invention. To do this, the buffer composition was as: 20 mM MOPS, 1 mM EDTA, 0.01% Brij-35, 5% Glycerol, 0.1% […], 1 mg/mL BSA. Test compounds were initially dissolved in DMSO at the desired concentration, then serially diluted to the kinase assay buffer. In a final reaction volume of 25 μL, Aurora-A(h) (5-10 mU) is incubated with 8 mM MOPS pH 7.0, 0.2 mM EDTA, 200 μM LRRASLG (Kemptide), 10 mM MgAcetate and [γ^33P-ATP]. The reaction was initiated by the addition of the MgATP mix. After incubation for 40 minute at room temperature, the reaction was stopped by addition of 5 μL of a 3% phosphoric acid solution. 10 μL of the reaction was then spotted onto a P30 filtermat and washed three times for 5 minutes in 50 mM phosphoric acid and once in methanol prior to drying and scintillation counting. Wells containing substrate but no kinase and wells containing a phosphopeptide control were used to set 0% and 100% phosphorylation value, repectively.
(§2) Also Kinase Hotspot™ kinase assay was used to test the compounds for IC50 or % inhibitions (Reaction Biology Corp.). Inhibitor IC50 values were determined by titration of compound at the optimal kinase concentration (Kinase EC50).

c-Src kinase = molecular target: T2, c-Src kinase (Homo sapiens, UniProt P12931); assay: c-Src kinase assay (KinaseProfiler / Kinase Hotspot); conditions: compound at 1 μM; read-out: % Inhibition @1 μM cSrc
T2 construct: purchased Millipore (KinaseProfiler Service) / Reaction Biology Corp. (Kinase Hotspot)
Experimental: as §1, §2

Flt3 kinase = molecular target: T3, Flt3 kinase (Homo sapiens, UniProt P36888); assay: Flt3 kinase assay (KinaseProfiler / Kinase Hotspot); conditions: compound at 1 μM
T3 construct: purchased Millipore (KinaseProfiler Service) / Reaction Biology Corp. (Kinase Hotspot)
T3 sequence (P36888 27-993): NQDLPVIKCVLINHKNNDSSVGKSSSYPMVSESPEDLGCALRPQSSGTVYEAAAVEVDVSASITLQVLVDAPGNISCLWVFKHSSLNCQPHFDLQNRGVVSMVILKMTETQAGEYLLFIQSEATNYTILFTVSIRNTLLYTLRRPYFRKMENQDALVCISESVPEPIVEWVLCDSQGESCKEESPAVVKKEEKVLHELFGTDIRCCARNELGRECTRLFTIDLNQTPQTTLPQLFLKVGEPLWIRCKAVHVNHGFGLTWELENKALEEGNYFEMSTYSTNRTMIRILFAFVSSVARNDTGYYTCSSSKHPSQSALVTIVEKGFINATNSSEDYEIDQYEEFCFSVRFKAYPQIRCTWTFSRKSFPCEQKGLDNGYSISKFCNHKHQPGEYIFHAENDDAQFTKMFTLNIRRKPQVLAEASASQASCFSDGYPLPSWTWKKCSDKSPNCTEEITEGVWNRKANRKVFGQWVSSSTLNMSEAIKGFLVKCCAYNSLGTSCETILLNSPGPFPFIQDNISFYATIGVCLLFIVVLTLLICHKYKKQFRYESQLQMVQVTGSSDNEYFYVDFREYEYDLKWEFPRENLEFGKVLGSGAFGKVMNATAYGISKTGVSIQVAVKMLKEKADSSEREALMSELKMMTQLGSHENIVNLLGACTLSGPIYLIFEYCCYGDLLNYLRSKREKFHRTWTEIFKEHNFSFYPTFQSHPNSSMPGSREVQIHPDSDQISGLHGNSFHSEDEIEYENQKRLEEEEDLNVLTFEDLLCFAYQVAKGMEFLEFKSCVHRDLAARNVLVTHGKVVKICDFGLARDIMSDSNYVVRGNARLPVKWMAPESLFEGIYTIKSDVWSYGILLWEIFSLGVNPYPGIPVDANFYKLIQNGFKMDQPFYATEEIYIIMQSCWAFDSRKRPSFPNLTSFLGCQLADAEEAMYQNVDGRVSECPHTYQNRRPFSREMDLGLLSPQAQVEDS
Experimental: as §1, §2

TrkA Kinase = molecular target: T4, TrkA Kinase (Homo sapiens, UniProt P04629); assay: TrkA kinase assay (KinaseProfiler / Kinase Hotspot); conditions: compound at 1 μM
T4 construct: purchased Millipore (KinaseProfiler Service) / Reaction Biology Corp. (Kinase Hotspot)
Experimental: as §1, §2

Ret kinase = molecular target: T5, Ret kinase (Homo sapiens, UniProt P07949); assay: Ret kinase assay (KinaseProfiler / Kinase Hotspot); conditions: compound at 1 μM
T5 construct: purchased Millipore (KinaseProfiler Service) / Reaction Biology Corp. (Kinase Hotspot)
Experimental: as §1, §2

T5 sequence (P07949 29-1114): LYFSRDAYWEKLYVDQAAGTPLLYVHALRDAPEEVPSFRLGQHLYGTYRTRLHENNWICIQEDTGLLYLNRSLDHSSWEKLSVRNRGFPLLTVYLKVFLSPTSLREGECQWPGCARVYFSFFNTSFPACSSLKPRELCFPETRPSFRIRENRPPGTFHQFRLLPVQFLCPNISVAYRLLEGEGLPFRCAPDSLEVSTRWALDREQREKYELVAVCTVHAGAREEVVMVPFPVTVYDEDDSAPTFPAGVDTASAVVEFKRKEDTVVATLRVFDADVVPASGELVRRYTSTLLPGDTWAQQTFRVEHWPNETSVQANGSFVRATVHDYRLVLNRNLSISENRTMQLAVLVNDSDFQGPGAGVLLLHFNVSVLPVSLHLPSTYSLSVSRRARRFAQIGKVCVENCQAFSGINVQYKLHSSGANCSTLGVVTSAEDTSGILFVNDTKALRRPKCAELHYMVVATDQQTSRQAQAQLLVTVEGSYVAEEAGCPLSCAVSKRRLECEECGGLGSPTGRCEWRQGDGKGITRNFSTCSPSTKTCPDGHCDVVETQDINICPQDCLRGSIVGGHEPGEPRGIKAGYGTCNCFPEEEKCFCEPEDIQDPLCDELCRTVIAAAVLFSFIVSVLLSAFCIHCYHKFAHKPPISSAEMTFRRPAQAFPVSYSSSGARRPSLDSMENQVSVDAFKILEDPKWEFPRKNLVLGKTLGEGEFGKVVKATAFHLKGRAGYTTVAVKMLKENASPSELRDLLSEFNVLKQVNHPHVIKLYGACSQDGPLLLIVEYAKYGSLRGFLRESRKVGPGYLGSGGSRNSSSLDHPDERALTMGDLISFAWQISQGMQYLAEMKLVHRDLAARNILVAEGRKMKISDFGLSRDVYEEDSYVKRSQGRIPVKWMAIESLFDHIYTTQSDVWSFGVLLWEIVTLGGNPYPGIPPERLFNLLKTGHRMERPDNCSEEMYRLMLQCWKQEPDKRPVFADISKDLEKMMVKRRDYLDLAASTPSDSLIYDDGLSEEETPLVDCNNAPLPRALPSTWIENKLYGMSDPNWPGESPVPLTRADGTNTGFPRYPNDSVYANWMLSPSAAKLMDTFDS
T2 sequence (P12931 whole entry): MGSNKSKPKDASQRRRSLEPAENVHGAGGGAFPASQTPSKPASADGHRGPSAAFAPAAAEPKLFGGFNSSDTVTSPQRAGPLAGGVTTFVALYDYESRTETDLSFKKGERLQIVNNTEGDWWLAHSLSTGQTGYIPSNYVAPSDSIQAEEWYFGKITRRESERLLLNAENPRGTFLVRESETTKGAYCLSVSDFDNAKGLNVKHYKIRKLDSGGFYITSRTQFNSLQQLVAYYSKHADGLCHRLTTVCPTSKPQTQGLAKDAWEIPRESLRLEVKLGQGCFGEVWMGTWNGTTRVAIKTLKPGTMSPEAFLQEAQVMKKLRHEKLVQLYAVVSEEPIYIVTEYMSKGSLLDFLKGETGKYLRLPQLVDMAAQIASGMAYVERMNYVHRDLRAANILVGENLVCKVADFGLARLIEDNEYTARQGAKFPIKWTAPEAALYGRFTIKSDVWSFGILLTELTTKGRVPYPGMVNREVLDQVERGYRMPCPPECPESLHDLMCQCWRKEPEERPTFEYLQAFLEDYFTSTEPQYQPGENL
T4 sequence (P04629 33-796): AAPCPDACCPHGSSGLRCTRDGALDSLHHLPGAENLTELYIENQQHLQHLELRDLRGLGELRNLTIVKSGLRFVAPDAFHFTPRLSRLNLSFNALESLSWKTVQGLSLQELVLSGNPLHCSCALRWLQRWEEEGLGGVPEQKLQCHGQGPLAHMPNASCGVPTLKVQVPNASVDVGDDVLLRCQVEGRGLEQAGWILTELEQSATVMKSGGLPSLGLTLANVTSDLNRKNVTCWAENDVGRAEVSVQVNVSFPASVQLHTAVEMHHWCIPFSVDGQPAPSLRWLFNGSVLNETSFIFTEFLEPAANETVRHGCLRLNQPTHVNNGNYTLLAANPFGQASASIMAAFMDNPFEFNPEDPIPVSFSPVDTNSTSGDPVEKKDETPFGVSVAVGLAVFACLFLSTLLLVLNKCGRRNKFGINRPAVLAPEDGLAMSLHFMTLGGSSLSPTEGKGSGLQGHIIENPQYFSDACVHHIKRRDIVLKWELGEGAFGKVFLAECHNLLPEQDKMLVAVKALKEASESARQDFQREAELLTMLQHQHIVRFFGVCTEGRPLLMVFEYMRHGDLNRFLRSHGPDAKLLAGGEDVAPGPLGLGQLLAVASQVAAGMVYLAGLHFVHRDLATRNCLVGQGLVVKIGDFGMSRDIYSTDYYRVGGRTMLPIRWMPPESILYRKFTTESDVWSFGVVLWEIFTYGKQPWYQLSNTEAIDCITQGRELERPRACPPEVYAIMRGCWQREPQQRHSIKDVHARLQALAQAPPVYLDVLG

inhibition at 1 µM (Aurora-A(h))	inhibition at 1 µM (c-Src kinase)	inhibition at 1 µM (Flt3 kinase)	inhibition at 1 µM (TrkA Kinase)	inhibition at 1 µM (Ret kinase)	Structure (SMILES)
50 to 90%	< 50%	50 to 90%	50 to 90%	< 50%	Cc1cc(Nc2nc(/C=C\c3ccccc3)nc(N3CCN(C)CC3)n2)n[nH]1 [Example 4]
> 90%	50 to 90%	> 90%	> 90%	50 to 90%	Cc1cc(Nc2nc(/C=C/c3ccccc3)nc(N3CCN(C)CC3)n2)n[nH]1 [Example 7]
50 to 90%	< 50%	50 to 90%	> 90%	50 to 90%	Cc1ccc(/C=C/c2nc(Nc3cc(C)[nH]n3)nc(N3CCN(C)CC3)n2)cc1 [Example 9]
50 to 90%	50 to 90%	> 90%	> 90%	< 50%	Cc1cc(Nc2nc(/C=C/c3ccccc3Cl)nc(N3CCN(C)CC3)n2)n[nH]1 [Example 10]
50 to 90%	50 to 90%	> 90%	> 90%	< 50%	Cc1cc(Nc2nc(/C=C/c3cccc(Cl)c3)nc(N3CCN(C)CC3)n2)n[nH]1 [Example 11]
50 to 90%	> 90%	50 to 90%	> 90%	50 to 90%	C/C=C/c1cc(Nc2nc(/C=C/c3ccccc3)nc(N3CCN(C)CC3)n2)n[nH]1 [Example 19]

Continued, compound first:

Structure (SMILES)	inhibition at 1 µM (Aurora-A(h))	inhibition at 1 µM (c-Src kinase)	inhibition at 1 µM (Flt3 kinase)	inhibition at 1 µM (TrkA Kinase)	inhibition at 1 µM (Ret kinase)
Cc1cc(Nc2nc(C#Cc3ccccc3)nc(N3CCN(C)CC3)n2)n[nH]1 [Example 3]	50 to 90%	< 50%	50 to 90%	> 90%	50 to 90%
Cc1cc(Nc2nc(/C=C/c3ccc(Cl)cc3)nc(N3CCN(C)CC3)n2)n[nH]1 [Example 8]	50 to 90%	50 to 90%	> 90%	> 90%	50 to 90%
Cc1cc(Nc2nc(/C=C/c3nccs3)nc(N3CCN(C)CC3)n2)n[nH]1 [Example 12]	50 to 90%	50 to 90%	> 90%	50 to 90%	< 50%
Cc1cnc(Nc2nc(/C=C/c3ccccc3)nc(N3CCN(C)CC3)n2)s1 [Example 17]	50 to 90%	50 to 90%	> 90%	> 90%	< 50%
CN1CCN(c2nc(/C=C/c3ccccc3)nc(Nc3cc(-c4ccccc4)[nH]n3)n2)CC1 [Example 18]	50 to 90%	50 to 90%	> 90%	> 90%	50 to 90%
